Experimental findings from patent US10865191B2, “Heterocyclic compounds useful as modulators of TNF alpha” (BRISTOL-MYERS SQUIBB COMPANY, priority 2015, dated 2020) are described below.

pIC50: −log10 of the molar value.

Chain of TNFα (P01375 77-233 limits assumed): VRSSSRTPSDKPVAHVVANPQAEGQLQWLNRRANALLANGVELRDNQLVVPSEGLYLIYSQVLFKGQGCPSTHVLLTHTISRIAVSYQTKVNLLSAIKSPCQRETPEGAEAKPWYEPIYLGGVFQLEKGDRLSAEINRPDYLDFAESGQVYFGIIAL

In the first assay the target is TNFα (Homo sapiens, UniProt P01375). In words: TNF induced HEK-Blue assay (NF-kB-driven secreted alkaline phosphatase reporter). The following applies: TNF induced HEK-Blue assay IC50 value, TNFα 0.5 ng/mL, HEK-Blue-CD40L cells, 18 h. The format is cell-based. The method, then:
TNF or CD40L-Induced HEK-Blue Assay
Test compounds serially diluted in DMSO were plated in an assay plate (LABCYTE, Cat. # LP-0200) at final concentrations ranging from 0.004 μM to 25 μM. TNFα (final concentration 0.5 ng/mL) or CD40L (final concentration 30 ng/mL) in assay buffer [DMEM, 4.5 g/l glucose (Gibco, Cat. 21063-029), 10% FBS (Sigma, F4135), 1% Penicillin-Streptomycin (Gibco, Cat. 15140-122), 1% Anti-Anti (Gibco, Cat. 15240-112) and 2 mM L-glutamine (Gibco, Cat. 25030-081)] was then added to the assay plate. After a 30 minute pre-incubation at 37° C. and 5% CO2, HEK-Blue™-CD40L cells (INVIVOGEN, Cat. Code hkb-cd40) containing a NF-kB-driven secreted alkaline phosphatase reporter gene were seeded into the assay plate at a density of 20,000 cells per well. This plate was then incubated for 18 h at 37° C. and 5% CO2. Secreted alkaline phosphatase expression was measured using QUANTI-Blue™ (INVIVOGEN, Cat. Code rep-qb1) according to manufacturer's specifications and the assay plate was read on a PerkinElmer Envision at 620 nm.
Inhibition data for the test compound over a range of concentrations was plotted as percentage inhibition of the test compound (100%=maximum inhibition). IC50 values were determined after correcting for background [(sample read-mean of low control)/(mean of high control-mean of low control)] where by the low control is DMSO without stimulation and high control is DMSO with stimulation. The IC50 is defined as the concentration of test compound which produces 50% inhibition and was quantified using the 4 parameter logistic equation to fit the data.
The pIC50 is the IC50 on a negative log10 scale, so that one unit is a factor of ten. `CC(Nc1c(Cl)cnc2ccc(-c3cnc(C(C)(C)O)nc3)cc12)c1ccccc1C(F)(F)F` (racemic) [Example 151, 2-(5-(3-chloro-4-((1-(2-(trifluoromethyl)phenyl)ethyl)amino)quinolin-6-yl)pyrimidin-2-yl)propan-2-ol]: the pIC50 is above 6.00. Same read-out and setting: under `CC(Nc1c(Cl)cnc2ccc(-c3cnc(C(C)(C)O)nc3)cc12)c1ccccc1F` (racemic) [Example 152, 2-(5-(3-chloro-4-((1-(2-fluorophenyl)ethyl)amino)quinolin-6-yl)pyrimidin-2-yl)propan-2-ol] stands above 6.00; under `CC(Nc1c(Cl)cnc2ccc(-c3cnc(C(C)(C)O)nc3)cc12)c1cccc(F)c1` (racemic) [Example 155, 2-(5-(3-chloro-4-((1-(3-fluorophenyl)ethyl)amino)quinolin-6-yl)pyrimidin-2-yl)propan-2-ol], 5.00 to 6.00; under `CC(Nc1c(Cl)cnc2ccc(-c3cnc(C(C)(C)O)nc3)cc12)c1ccc(F)cc1` (racemic) [Example 157, 2-(5-(3-chloro-4-((1-(4-fluorophenyl)ethyl)amino)quinolin-6-yl)pyrimidin-2-yl)propan-2-ol], 4.60 to 5.00.

The assay is the same for the next values; noted with them: TNFα 0.5 ng/mL, HEK-Blue-CD40L cells, 18 h; read-out: TNF induced HEK-Blue assay IC50 value.
For `CC(Nc1c(Cl)cnc2ccc(-c3cnc(C(C)(C)O)nc3)cc12)c1cccc(C(F)(F)F)c1` (racemic) [Example 147, 2-(5-(3-chloro-4-((1-(3-(trifluoromethyl)phenyl)ethyl)amino)quinolin-6-yl)pyrimidin-2-yl)propan-2-ol], the pIC50 is 5.00 to 6.00. The same measure, in the same setting: under `Cc1ccc(C)c(C(C)Nc2c(Cl)cnc3ccc(-c4cnc(C(C)(C)O)nc4)cc23)c1` (racemic) [Example 149, 2-(5-(3-chloro-4-((1-(2,5-dimethylphenyl)ethyl)amino)quinolin-6-yl)pyrimidin-2-yl)propan-2-ol] stands 5.00 to 6.00; under `CC(Nc1c(Cl)cnc2ccc(-c3cnc(C(C)(C)O)nc3)cc12)c1ccc(C(F)(F)F)cc1` (racemic) [Example 150, 2-(5-(3-chloro-4-((1-(4-(trifluoromethyl)phenyl)ethyl)amino)quinolin-6-yl)pyrimidin-2-yl)propan-2-ol], 4.60 to 5.00.

For the molecule `CC(Nc1c(Cl)cnc2ccc(-c3cnc(C(C)(C)O)nc3)cc12)c1ccccc1Cl` (racemic) [Example 153, 2-(5-(3-chloro-4-((1-(2-chlorophenyl)ethyl)amino)quinolin-6-yl)pyrimidin-2-yl)propan-2-ol], the pIC50 is above 6.00. Same read-out and setting: under `CC(Nc1c(F)cnc2ccc(-c3cnc(C(C)(C)O)nc3)cc12)c1ccccc1F` (racemic) [Example 156, 2-(5-(3-fluoro-4-((1-(2-fluorophenyl)ethyl)amino)quinolin-6-yl)pyrimidin-2-yl) propan-2-ol] stands 5.00 to 6.00; under `Cc1nc2ccc(-c3cnc(C(C)(C)O)nc3)cc2c(NC(C)c2ccccc2F)c1F` (racemic) [Example 159, 2-(5-(3-fluoro-4-((1-(2-fluorophenyl)ethyl)amino)-2-methylquinolin-6-yl)pyrimidin-2-yl)propan-2-ol], 4.60 to 5.00. Same read-out and setting: as for `CC(Nc1c(Cl)cnc2ccc(-c3cnc(C(C)(C)O)nc3)cc12)c1cc(F)ccc1F` (racemic) [Example 160, 2-(5-(3-chloro-4-((1-(2,5-difluorophenyl)ethyl)amino)quinolin-6-yl)pyrimidin-2-yl)propan-2-ol], the figure is above 6.00. On the same count and under the same terms, under `CC(Nc1c(Cl)cnc2ccc(-c3cnc(C(C)(C)O)nc3)cc12)c1ccncc1F` (racemic) [Example 162, 2-(5-(3-chloro-4-((1-(3-fluoropyridin-4-yl)ethyl)amino)quinolin-6-yl)pyrimidin-2-yl)propan-2-ol] stands above 6.00; under `CC(Nc1c(Cl)cnc2ccc(-c3cnc(C(C)(C)O)nc3)cc12)c1ccc(F)cc1F` (racemic) [Example 163, 2-(5-(3-chloro-4-((1-(2,4-difluorophenyl)ethyl)amino)quinolin-6-yl)pyrimidin-2-yl)propan-2-ol], 5.00 to 6.00; under `CC(C)(O)c1ncc(-c2ccc3ncc(Cl)c(NC(c4ccccc4F)C(F)(F)F)c3c2)cn1` (racemic) [Example 164, 2-(5-(3-chloro-4-((2,2,2-trifluoro-1-(2-fluorophenyl)ethyl)amino)quinolin-6-yl)pyrimidin-2-yl)propan-2-ol], 5.00 to 6.00.

Regarding `CC(C)(O)c1ncc(-c2ccc3ncc(Cl)c(NC(CC(F)(F)F)c4ccccc4)c3c2)cn1` (racemic) [Example 165, 2-(5-(3-chloro-4-((3,3,3-trifluoro-1-phenylpropyl)amino)quinolin-6-yl)pyrimidin-2-yl)propan-2-ol], the pIC50 is above 6.00. The same measure, in the same setting: as for `CC(Nc1c(Cl)cnc2ccc(-c3ccc(C(C)(C)O)cc3)cc12)c1cccnc1` (racemic) [Example 166, 2-(4-(3-chloro-4-((1-(pyridin-3-yl)ethyl)amino)quinolin-6-yl)phenyl)propan-2-ol], the figure is 4.60 to 5.00; as for `CC(C)(O)c1ncc(-c2ccc3ncc(Cl)c(NC(CCO)c4ccccc4F)c3c2)cn1` (racemic) [Example 167, 3-((3-chloro-6-(2-(2-hydroxypropan-2-yl)pyrimidin-5-yl)quinolin-4-yl)amino)-3-(2-fluorophenyl)propan-1-ol], above 6.00; as for `CC(C)(O)c1ncc(-c2ccc3ncc(Cl)c(NC(CC(F)F)c4ccccc4F)c3c2)cn1` (racemic) [Example 168, 2-(5-(3-chloro-4-((3,3-difluoro-1-(2-fluorophenyl)propyl)amino)quinolin-6-yl)pyrimidin-2-yl)propan-2-ol], above 6.00. Still for that read-out and setting: under `CC(C)(O)c1ncc(-c2ccc3ncc(Cl)c(NC(CC(F)(F)F)c4ccccc4F)c3c2)cn1` (racemic) [Example 169, 2-(5-(3-chloro-4-((3,3,3-trifluoro-1-(2-fluorophenyl)propyl)amino)quinolin-6-yl)pyrimidin-2-yl)propan-2-ol] stands above 6.00. Same read-out and setting: under `CC(Nc1c(Cl)cnc2ccc(-c3ccc(C(C)(C)O)cc3)cc12)c1ncccc1F` (racemic) [Example 170, 2-(4-(3-chloro-4-((1-(3-fluoropyridin-2-yl)ethyl)amino)quinolin-6-yl)phenyl) propan-2-ol] stands above 6.00; under `CC(Nc1c(Cl)cnc2ccc(-c3cnc(C(C)(C)O)nc3)cc12)c1ncccc1F` (racemic) [Example 171, 2-(5-(3-chloro-4-((1-(3-fluoropyridin-2-yl)ethyl)amino)quinolin-6-yl)pyrimidin-2-yl)propan-2-ol], above 6.00; under `CC(Nc1c(Cl)cnc2ccc(-c3ccc(C(C)(C)O)cc3)cc12)c1cnsc1` (racemic) [Example 172, 2-(4-(3-chloro-4-((1-(isothiazol-4-yl)ethyl)amino)quinolin-6-yl)phenyl)propan-2-ol], 4.60 to 5.00.

Regarding `CC(Nc1c(Cl)cnc2ccc(-c3ccc(C(C)(C)O)cc3)cc12)c1ccncn1` (racemic) [Example 173, 2-(4-(3-chloro-4-((1-(pyrimidin-4-yl)ethyl)amino)quinolin-6-yl)phenyl)propan-2-ol], the pIC50 was 5.00 to 6.00.

With `CC(Nc1c(Cl)cnc2ccc(-c3ccc(C(C)(C)O)cc3)cc12)c1ccon1` (racemic) [Example 174, 2-(4-(3-chloro-4-((1-(isoxazol-3-yl)ethyl)amino)quinolin-6-yl)phenyl)propan-2-ol], the pIC50 is 4.60 to 5.00.
